Results: publication PMC4485237, “SPECT/CT Imaging of High-Risk Atherosclerotic Plaques using Integrin-Binding RGD Dimer Peptides” (Scientific Reports, 2015)

Target: T1, integrin αvβ3 (Mus musculus, UniProt O54890+P43406)
T1 construct: from tissue; host or cells: aorta (atherosclerotic plaque and normal regions) of living ApoE-/- and wild-type C57BL/6J mice
T1 sequence (P43406 31-1044): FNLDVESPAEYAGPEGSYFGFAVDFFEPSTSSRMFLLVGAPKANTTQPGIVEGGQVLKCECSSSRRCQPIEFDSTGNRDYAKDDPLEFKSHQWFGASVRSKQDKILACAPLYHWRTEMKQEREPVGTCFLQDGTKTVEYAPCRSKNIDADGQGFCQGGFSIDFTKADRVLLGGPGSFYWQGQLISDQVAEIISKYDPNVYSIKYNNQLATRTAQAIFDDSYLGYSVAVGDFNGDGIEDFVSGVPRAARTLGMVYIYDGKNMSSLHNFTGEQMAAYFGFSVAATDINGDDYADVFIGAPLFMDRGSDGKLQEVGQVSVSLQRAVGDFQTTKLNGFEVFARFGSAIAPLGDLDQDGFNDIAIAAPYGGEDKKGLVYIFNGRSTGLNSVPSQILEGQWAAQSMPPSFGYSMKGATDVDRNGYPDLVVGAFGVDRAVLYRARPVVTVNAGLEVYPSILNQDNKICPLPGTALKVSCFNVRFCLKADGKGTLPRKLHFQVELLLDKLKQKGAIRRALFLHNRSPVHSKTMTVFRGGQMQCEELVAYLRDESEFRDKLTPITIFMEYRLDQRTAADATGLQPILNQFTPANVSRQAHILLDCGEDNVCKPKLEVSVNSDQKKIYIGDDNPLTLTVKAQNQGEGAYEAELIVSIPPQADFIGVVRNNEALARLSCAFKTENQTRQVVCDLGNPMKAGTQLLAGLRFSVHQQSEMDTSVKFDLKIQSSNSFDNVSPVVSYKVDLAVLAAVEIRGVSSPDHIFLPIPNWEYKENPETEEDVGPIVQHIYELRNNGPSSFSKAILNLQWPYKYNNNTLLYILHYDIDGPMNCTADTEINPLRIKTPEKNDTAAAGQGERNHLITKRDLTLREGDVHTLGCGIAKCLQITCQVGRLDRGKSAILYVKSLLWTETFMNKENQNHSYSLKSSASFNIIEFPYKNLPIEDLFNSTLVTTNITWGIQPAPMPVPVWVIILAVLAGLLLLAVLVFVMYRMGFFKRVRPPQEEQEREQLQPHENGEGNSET
T1 sequence (O54890 26-787): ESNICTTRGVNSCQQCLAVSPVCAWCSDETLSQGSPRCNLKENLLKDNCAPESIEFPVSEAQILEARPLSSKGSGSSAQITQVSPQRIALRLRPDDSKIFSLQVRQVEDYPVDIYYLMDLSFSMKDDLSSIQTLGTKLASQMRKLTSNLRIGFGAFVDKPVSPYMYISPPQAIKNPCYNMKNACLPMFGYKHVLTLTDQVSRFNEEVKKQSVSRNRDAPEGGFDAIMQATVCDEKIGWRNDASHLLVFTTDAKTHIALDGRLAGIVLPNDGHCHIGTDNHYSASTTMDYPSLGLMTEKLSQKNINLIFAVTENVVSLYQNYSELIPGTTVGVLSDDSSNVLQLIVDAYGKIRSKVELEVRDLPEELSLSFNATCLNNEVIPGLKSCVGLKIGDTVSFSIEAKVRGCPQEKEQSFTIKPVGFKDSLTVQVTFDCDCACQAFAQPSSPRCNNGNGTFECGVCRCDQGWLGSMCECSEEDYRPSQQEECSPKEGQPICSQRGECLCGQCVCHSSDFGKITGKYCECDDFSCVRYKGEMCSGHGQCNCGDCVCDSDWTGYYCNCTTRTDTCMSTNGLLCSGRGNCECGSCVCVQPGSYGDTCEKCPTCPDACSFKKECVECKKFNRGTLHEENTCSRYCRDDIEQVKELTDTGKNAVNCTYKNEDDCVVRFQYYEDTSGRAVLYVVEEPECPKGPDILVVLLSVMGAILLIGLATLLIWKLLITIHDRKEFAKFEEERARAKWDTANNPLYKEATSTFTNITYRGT
Experiment: In vivo SPECT/CT imaging and ROI quantification of radiotracer uptake in aorta of atherosclerotic (ApoE-/-, high-cholesterol diet) and wild-type mice
Conditions: 30 min post-injection, RGD and RAD tracers in the same mouse on consecutive days
Procedure: All animal experiments were carried out in accordance with the approved guidelines by the Seoul National University Bundang Hospital Animal Care and Use Committee. Apolipoprotein E knock out mice (male, n = 10) and C57BL/6J mice (male, n = 3) were purchased from the Jackson Laboratory (Bar Harbor, Maine, USA) at 8–10 weeks of age. The ApoE-/- mice were maintained on a high-cholesterol diet (0.2% total cholesterol, Harlan Laboratories, Indianapolis, IN, USA) for 40 weeks. At the time of imaging experiment, the mice had substantial atherosclerotic lesion growth resembling vulnerable plaques in humans. Wild-type mice with the C57BL/6J genetic background had been maintained on a regular diet and were used for the disease controls.
We anesthetized mice with 2% isoflurane gas anesthesia. […] The analysis software HiSPECT (Version 1.0, Bioscan Inc., Poway, CA, USA) and InVivoScope (Version 1.43, Bioscan Inc., Poway, CA, USA) were used for image reconstruction and quantification, respectively. […] Manually drawn two-dimensional regions of interest (ROIs) or three-dimensional volumes of interest (VOIs) were used to determine the accumulated radioactivity in units of %ID/g (with decay corrected to the time of injection) using 37–55.5 MBq radioactivity of ^99mTc as the reference source.

SPECT uptake in aortic arch region containing atherosclerotic plaques (in words): no specific accumulation
SMILES: [O]=[99Tc](=[O])(=[O])[O-] [^99mTc-pertechnetate]
